According to ChEMBL document CHEMBL1201862, “PubChem BioAssay data set” (2004):
Activity calls are given as the source filed them.

Assays:
[1] = growth induction of Burl-1 ts yeast mutant, dose response, counter-screen for SUMOylation pathway inhibitor project, whole organism, S. cerevisiae, luminescence (AID 463199); format: functional
[2] = target: Intestinal-type alkaline phosphatase (Homo sapiens, UniProt P09923); test: inhibition of human intestinal alkaline phosphatase – biochemical, dose response (AID 488876); format: functional
Large T antigen = Large T antigen (Simian virus 40, UniProt P03070); format: functional, Betapolyomavirus macacae;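 further: Confirmatory-stage PubChem screen for compounds that inhibit SV40 T antigen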
Sequence of Large T antigen (P03070 whole entry): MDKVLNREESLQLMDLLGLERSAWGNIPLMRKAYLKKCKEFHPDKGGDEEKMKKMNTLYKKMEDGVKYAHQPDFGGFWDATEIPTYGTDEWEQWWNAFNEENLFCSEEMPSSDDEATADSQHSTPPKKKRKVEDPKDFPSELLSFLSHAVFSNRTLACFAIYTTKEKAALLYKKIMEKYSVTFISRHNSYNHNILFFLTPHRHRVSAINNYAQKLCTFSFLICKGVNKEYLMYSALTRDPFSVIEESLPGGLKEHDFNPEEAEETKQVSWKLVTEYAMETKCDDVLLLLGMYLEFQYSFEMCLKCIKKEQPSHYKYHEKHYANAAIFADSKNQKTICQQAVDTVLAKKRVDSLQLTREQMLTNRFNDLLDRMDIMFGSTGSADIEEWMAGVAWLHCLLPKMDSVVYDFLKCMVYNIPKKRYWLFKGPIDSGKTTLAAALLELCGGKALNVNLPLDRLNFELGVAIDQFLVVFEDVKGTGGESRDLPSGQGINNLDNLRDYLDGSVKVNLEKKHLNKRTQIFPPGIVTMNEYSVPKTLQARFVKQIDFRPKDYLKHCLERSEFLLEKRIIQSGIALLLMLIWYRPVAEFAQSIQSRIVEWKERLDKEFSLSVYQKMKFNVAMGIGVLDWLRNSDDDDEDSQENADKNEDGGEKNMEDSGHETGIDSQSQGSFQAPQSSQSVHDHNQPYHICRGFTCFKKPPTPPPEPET

[3] = target: Intestinal-type alkaline phosphatase (Mus musculus, UniProt P24822); test: PubChem AID 488785; format: functional
[4] = target: T1, Zinc finger protein mex-5 (Caenorhabditis elegans, UniProt Q9XUB2); test: MEX-5/TCR-2 RNA interaction inhibitors, dose response, biochemical, C. elegans, fluorescence polarization (AID 1960)
T1 sequence (Q9XUB2 whole entry): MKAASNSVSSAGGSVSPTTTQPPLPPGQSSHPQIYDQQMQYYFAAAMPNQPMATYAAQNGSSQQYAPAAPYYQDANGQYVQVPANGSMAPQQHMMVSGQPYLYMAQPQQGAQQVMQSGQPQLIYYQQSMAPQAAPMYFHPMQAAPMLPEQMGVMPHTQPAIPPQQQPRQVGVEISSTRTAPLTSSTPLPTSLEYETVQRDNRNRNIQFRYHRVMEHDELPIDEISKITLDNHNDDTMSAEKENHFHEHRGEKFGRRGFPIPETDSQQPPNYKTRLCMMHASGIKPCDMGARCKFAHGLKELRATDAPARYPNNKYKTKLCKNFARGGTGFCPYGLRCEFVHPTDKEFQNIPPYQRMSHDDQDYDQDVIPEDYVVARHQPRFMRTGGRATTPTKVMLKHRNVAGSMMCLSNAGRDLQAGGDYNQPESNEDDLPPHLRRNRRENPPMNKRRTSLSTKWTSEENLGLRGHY

[5] = target: T2, Alkaline phosphatase, tissue-nonspecific isozyme (Homo sapiens, UniProt P05186); test: TNAP enzyme inhibition by screening hits, dose response, selectivity assay for mouse IAP inhibitor project, biochemical, human TNAP, uHTS hits (AID 488906); format: functional
T2 sequence (P05186 whole entry): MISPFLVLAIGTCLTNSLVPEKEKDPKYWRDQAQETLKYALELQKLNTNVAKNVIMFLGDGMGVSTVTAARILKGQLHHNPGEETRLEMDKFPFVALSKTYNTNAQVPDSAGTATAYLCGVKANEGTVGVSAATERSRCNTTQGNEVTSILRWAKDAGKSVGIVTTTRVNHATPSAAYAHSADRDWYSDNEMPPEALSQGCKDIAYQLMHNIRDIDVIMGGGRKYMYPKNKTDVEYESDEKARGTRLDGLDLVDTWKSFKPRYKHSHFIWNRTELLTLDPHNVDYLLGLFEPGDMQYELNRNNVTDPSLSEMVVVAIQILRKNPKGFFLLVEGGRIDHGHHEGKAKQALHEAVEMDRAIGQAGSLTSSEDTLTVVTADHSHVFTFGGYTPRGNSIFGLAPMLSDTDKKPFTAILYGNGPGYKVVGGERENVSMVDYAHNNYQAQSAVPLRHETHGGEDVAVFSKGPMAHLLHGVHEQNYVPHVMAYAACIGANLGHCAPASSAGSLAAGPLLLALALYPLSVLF

[6] = target: Hepatocyte nuclear factor 4-alpha (Homo sapiens, UniProt P41235); format: functional, cell-based;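 further: biochemical luminescence-based dose-response counterscreen measuring inhibition of HNF4 dimerization, run alongside a screen for blockers of ABHD5–perilipin-5 interaction; split luciferase complementation of HNF4 fusion proteins in cell lysate measuring dimerization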
Sequence of Hepatocyte nuclear factor 4-alpha (P41235 whole entry, the tested form may be a part): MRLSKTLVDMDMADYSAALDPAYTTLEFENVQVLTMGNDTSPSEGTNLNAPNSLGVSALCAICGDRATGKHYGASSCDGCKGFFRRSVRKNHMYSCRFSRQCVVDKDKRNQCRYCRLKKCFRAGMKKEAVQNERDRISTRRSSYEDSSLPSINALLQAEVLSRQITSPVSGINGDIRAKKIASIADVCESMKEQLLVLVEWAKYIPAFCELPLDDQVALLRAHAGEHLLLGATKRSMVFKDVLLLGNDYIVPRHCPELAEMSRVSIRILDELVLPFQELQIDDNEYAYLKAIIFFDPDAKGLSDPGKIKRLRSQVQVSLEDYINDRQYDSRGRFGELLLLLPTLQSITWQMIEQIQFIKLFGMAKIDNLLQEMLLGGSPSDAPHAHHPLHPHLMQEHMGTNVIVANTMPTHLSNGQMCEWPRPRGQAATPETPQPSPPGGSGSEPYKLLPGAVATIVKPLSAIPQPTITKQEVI

[7] = target: T3, RNA-binding protein pos-1 (Caenorhabditis elegans, UniProt G5EF15); test: inhibitors of POS-1/mex-3 RNA binding, dose response, biochemical, fluorescence polarization (AID 1964);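 further: purified POS-1 fused to maltose binding protein made in E. coli; potency of compounds blocking POS-1 binding to fluorescent RNA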
T3 sequence (G5EF15 whole entry): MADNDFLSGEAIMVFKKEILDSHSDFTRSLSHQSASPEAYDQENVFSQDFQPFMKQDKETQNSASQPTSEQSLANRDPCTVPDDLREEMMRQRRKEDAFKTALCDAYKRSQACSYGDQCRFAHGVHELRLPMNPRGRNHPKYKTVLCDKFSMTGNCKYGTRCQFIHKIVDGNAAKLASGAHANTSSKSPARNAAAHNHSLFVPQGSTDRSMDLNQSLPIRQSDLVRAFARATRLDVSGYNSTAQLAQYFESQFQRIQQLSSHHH

CAAX prenyl protease 1 = CAAX prenyl protease 1 (Saccharomyces cerevisiae S288c, UniProt P47154); test: Ste24 protease inhibitors, dose response, biochemical, S. cerevisiae, plate reader, cherry-pick (AID 488815)
Sequence of CAAX prenyl protease 1 (P47154 whole entry): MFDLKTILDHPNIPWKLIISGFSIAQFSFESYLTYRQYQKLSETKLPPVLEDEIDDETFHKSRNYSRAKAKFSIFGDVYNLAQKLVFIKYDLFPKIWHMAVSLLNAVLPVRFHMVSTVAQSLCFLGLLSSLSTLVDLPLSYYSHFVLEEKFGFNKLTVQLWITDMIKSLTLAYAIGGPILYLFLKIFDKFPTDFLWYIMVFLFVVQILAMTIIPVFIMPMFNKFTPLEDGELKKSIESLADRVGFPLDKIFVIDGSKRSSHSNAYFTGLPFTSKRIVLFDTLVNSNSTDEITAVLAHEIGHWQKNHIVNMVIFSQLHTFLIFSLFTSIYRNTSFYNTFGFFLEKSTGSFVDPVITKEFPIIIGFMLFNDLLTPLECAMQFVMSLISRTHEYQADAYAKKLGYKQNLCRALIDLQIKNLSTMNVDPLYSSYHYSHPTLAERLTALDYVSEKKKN

Trypsin = Trypsin (Sus scrofa, UniProt P00761); test: porcine trypsin inhibitors, dose response, selectivity assay for Rce1 protease inhibitor project, biochemical, quenched peptide fluorescence, cherry-pick (AID 488789)
Cytochrome P450 2C9 [8] = target: T4, Cytochrome P450 2C9 (Homo sapiens, UniProt P11712)
T4 sequence (P11712 whole entry): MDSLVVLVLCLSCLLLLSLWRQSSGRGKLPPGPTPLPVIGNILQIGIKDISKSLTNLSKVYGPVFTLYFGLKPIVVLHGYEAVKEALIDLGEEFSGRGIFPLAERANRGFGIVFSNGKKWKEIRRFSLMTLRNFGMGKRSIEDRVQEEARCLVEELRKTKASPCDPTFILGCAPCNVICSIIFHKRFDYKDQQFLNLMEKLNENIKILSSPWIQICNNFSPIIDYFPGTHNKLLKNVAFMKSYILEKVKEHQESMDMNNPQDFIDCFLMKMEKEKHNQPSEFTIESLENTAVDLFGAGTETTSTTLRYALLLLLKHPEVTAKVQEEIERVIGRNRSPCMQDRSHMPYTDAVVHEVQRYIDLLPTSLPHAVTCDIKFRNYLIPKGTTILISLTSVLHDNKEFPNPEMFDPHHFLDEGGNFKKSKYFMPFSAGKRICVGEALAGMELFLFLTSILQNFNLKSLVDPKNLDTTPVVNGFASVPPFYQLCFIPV

[9] = target: T5, Kappa-type opioid receptor (Homo sapiens, UniProt P41145); test: SAR analysis of small molecule agonists of the kappa opioid receptor via a luminescent beta-arrestin assay - Set 2. [Related pubchem assays (depositor defined):AID1777, AID1785, AID1786, AID1966, AID2133, AID2136, AID2284, AID449737]; format: functional
T5 sequence (P41145 whole entry): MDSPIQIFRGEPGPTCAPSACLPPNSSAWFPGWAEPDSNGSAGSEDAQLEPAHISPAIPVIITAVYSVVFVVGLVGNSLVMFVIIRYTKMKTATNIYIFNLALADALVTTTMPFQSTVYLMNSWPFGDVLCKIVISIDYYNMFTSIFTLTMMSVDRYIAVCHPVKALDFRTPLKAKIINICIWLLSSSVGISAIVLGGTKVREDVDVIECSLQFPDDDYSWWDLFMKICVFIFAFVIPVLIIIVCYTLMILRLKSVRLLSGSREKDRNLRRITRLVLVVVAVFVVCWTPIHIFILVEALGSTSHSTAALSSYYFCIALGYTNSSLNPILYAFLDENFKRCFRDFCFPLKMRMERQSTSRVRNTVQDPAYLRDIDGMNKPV

Mu-type opioid receptor [10] = target: T6, Mu-type opioid receptor (Homo sapiens, UniProt P35372); test: SAR Analysis of Antagonists of the MOR Receptor using an Image-Based Assay - Set 2. [Related pubchem assays (depositor defined):AID1777, AID1785, AID1786, AID1966, AID2133, AID2136, AID2284, AID2285, AID2420]; format: functional
T6 sequence (P35372 whole entry): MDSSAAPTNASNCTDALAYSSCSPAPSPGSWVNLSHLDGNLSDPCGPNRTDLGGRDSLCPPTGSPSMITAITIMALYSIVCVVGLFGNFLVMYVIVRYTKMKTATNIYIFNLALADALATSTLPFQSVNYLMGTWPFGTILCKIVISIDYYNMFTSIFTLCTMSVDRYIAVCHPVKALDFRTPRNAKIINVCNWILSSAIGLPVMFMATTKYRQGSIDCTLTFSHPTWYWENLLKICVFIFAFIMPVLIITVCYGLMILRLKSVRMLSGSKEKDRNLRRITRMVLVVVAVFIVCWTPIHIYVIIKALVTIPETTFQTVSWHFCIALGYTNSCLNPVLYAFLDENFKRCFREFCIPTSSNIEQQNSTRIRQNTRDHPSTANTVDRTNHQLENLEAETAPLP

[11] = target: T7, Delta-type opioid receptor (Homo sapiens, UniProt P41143); test: SAR Analysis of Agonists of the DOR Receptor using an Image-Based Assay - Set 2. [Related pubchem assays (depositor defined):AID1777, AID1785, AID1786, AID1966, AID2133, AID2136, AID2284, AID2285, AID2370]; format: functional
T7 sequence (P41143 whole entry): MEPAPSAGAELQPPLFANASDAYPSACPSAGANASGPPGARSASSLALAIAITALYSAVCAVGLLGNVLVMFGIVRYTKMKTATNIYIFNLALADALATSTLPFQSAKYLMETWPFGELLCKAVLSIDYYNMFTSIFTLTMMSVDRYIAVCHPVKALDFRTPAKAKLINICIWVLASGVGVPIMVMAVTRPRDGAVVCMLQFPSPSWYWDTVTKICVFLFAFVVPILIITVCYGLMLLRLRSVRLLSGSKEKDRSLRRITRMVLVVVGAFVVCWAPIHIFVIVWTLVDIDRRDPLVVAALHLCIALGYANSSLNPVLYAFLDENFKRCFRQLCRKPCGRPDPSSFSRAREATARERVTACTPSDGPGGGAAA

Mu-type opioid receptor [12] = target: T6, Mu-type opioid receptor; test: SAR Analysis of Agonists of the MOR Receptor using an Image-Based Assay - Set 2. [Related pubchem assays (depositor defined):AID1777, AID1785, AID1786, AID1966, AID2133, AID2136, AID2284, AID2285, AID2352]; format: functional
[13] = target: T5, Kappa-type opioid receptor; test: SAR analysis of Agonists of the Kappa Opioid Receptor (KOR) using an Image-Based Assay - Set 2. [Related pubchem assays (depositor defined):AID1777, AID1786, AID1966, AID2133, AID2136, AID2284, AID2285, AID2359]; format: functional
[14] = target: T5, Kappa-type opioid receptor; test: SAR analysis of Antagonists of the Kappa Opioid Receptor (KOR) using an Image-Based Assay - Set 2. [Related pubchem assays (depositor defined):AID1777, AID1785, AID1786, AID1966, AID2133, AID2136, AID2284, AID2285, AID2348]; format: functional
[15] = target: T7, Delta-type opioid receptor; test: SAR Analysis of Antagonists of the DOR Receptor using an Image-Based Assay - Set 2. [Related pubchem assays (depositor defined):AID1777, AID1785, AID1786, AID1966, AID2133, AID2136, AID2284, AID2285, AID2357]; format: functional
[16] = target: T8, G-protein coupled receptor 35 (Homo sapiens, UniProt Q9HC97); test: GPR35 antagonists blocking zaprinast-driven arrestin recruitment, primary screen, imaging, U2OS, beta-arrestin-GFP, zaprinast agonist (AID 2058); format: functional;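 further: antagonist potency meaning inhibition of agonist-induced arrestin redistribution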
T8 sequence (Q9HC97 whole entry): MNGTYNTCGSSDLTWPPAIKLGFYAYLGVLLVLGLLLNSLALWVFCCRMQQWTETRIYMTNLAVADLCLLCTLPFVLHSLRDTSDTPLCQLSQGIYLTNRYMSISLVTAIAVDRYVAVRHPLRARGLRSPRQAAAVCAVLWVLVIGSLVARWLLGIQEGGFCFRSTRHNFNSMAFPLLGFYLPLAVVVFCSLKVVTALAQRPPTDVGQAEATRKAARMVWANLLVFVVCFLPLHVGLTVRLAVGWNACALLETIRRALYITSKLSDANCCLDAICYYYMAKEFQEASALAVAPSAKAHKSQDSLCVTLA

[17] = cytotoxicity in HEK-293T cells, dose response, cytotoxicity control for BCR NF-kB inhibitor project, luminescence, B-cell screen hits (AID 489021); format: functional, cell-based;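 further: HEK-293T cells carrying an NF-kB luciferase reporter; cells exposed to compound for about 14 hours before viability readout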
[18] = target: G-protein coupled receptor 55 (Homo sapiens, UniProt Q9Y2T6); test: GPR55 antagonists, SAR follow-up, counter-screen for GPR35 antagonist project, imaging, image-based (AID 2397); format: functional
Sequence of G-protein coupled receptor 55 (Q9Y2T6 whole entry): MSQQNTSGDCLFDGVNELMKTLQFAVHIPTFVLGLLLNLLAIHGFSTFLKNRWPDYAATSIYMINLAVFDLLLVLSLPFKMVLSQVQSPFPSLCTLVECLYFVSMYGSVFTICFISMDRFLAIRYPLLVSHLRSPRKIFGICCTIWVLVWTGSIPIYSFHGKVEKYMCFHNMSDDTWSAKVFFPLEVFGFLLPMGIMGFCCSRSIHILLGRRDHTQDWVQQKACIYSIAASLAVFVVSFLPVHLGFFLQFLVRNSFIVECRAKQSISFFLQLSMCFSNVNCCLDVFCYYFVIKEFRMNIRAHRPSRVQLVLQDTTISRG

[19] = target: T8, G-protein coupled receptor 35; test: SAR Analysis for the identification of Selective Antagonists of ERK1/2 Activity in GPR35-Overexpressing U2OS Cells. [Related pubchem assays: 2079, 2058 ]; format: functional, cell-based
Cytochrome P450 2D6 = Cytochrome P450 2D6 (Homo sapiens, UniProt P10635);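 further: CYP2D6 member of a cytochrome P450 panel assay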
Sequence of Cytochrome P450 2D6 (P10635 whole entry): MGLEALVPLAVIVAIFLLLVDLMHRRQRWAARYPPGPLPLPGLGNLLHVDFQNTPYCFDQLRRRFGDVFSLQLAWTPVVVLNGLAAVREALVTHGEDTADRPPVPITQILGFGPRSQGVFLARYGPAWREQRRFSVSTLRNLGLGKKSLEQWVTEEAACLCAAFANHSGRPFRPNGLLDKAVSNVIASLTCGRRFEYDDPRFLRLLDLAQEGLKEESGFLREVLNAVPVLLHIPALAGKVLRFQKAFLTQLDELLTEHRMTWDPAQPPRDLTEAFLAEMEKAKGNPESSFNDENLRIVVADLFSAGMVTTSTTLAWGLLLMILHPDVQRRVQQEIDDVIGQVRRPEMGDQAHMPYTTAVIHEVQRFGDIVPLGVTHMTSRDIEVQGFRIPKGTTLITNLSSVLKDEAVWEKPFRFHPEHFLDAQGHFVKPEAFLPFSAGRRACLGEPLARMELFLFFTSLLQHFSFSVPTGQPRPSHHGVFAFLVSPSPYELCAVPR

Cytochrome P450 1A2 = target: T9, Cytochrome P450 1A2 (Homo sapiens, UniProt P05177);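 further: PubChem cytochrome P450 panel assay, CYP1A2 panel member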
T9 sequence (P05177 whole entry): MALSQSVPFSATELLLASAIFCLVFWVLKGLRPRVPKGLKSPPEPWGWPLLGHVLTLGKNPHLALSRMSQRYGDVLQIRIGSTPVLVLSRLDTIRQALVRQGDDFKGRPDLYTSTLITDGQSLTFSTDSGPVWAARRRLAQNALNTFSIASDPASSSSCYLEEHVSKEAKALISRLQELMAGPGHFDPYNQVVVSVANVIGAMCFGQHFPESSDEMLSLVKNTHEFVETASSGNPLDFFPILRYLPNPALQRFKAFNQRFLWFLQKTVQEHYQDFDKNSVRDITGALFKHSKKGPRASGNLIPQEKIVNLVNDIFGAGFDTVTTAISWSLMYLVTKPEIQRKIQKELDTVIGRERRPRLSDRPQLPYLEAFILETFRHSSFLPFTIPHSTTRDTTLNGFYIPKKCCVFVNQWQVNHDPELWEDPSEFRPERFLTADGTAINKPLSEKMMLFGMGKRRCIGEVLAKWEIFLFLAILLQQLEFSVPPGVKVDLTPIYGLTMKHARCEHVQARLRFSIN

Streptokinase A = target: T10, Streptokinase A (Streptococcus pyogenes serotype M1, UniProt P10520); test: S. pyogenes streptokinase expression inhibitors, potency, dose response, plasminogen activation absorbance, OD405 (AID 1914); format: functional, Streptococcus pyogenes M1 GAS;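 further: secreted streptokinase activity via plasminogen activation per viability signal from cell pellet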
T10 sequence (P10520 whole entry): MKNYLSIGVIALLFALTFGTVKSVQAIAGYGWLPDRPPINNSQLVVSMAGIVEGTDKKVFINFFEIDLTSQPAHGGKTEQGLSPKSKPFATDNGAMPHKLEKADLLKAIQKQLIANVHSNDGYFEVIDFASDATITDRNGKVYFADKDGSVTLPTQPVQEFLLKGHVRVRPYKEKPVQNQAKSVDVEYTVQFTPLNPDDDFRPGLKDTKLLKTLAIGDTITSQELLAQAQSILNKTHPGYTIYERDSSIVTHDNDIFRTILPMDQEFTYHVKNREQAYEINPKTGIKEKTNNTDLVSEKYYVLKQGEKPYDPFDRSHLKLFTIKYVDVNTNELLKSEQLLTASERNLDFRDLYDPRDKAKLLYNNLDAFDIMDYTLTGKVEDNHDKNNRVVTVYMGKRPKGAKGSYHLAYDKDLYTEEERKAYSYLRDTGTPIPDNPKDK

[20] = system: Streptococcus sp. 'group A'; test: growth inhibition of control SK(-) GAS strain, dose response, counter-screen for streptokinase expression inhibitor project, luminescence, kanamycin, BacTiterGlo, confirmation (AID 1900); format: functional, organism-based
Cytochrome P450 2C9 [21] = target: T4, Cytochrome P450 2C9; remark: listed apart in the source
Streptococcus = test: Group A Streptococcus viability loss, dose response, counter-screen for streptokinase expression inhibitor project, luminescence, BacTiterGlo (AID 1915); format: functional, organism-based;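 further: potency for reduction of bacterial viability or growth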
Cytochrome P450 2C19 = Cytochrome P450 2C19 (Homo sapiens, UniProt P33261); test: Cytochrome panel assay with activity outcomes. Panel member name: p450-cyp2c19 Compounds with AC50 equal or less than 10 uM are considered active; format: functional
Sequence of Cytochrome P450 2C19 (P33261 whole entry): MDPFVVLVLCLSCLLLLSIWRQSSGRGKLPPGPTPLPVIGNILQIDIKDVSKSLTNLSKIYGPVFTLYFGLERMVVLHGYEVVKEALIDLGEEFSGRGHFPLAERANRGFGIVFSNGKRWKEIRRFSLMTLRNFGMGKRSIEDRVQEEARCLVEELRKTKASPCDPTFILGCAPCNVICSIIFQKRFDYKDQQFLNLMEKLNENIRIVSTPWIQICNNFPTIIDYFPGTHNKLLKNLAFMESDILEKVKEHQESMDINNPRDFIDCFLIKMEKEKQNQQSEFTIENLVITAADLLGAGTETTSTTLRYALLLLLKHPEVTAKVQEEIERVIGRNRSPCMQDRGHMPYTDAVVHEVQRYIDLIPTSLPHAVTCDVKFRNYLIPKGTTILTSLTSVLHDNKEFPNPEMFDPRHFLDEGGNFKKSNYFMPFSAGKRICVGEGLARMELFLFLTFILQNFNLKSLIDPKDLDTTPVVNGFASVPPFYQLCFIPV

For O=C(c1cc(F)ccc1F)C1CCCN(C(=O)c2ccc3nccnc3c2)C1 (centres undefined), the AC50 [1] was 78.3 µM (active).
With CN1C(=O)/C(=C/C=C/c2ccco2)C(=O)NC1=S the IC50 [2] was 9.58 µM (active), the IC50 (Large T antigen) was 11.9 µM (active) and the IC50 [3] was 11.8 µM (active). For the same compound, the EC50 [4] was 37.5 µM (active), the IC50 [5] was 23.5 µM (active) and the IC50 [6] was 2.56 µM (active). For the same compound, the EC50 [7] was 33.5 µM (active).
In the case of COc1ccc(-c2cc3ccccc3n2CC(O)CNCCO)cc1 (centres undefined), the AC50 (CAAX prenyl protease 1) is reported as 11.5 µM (active), the AC50 (Trypsin) is reported as 17.3 µM (active) and the AC50 (Cytochrome P450 2C9 [8]) is reported as 17.8 µM (inconclusive).
For COc1ccc(CSc2nnc(-c3ccccn3)n2Cc2ccco2)cc1, the EC50 [9] was 7.69 µM (active), the IC50 (Mu-type opioid receptor [10]) was > 32 µM (inactive) and the EC50 [11] was > 32 µM (inactive). The EC50 (Mu-type opioid receptor [12]) was > 32 µM (inactive), the EC50 [13] was 12.4 µM (inactive) and the IC50 [14] was > 32 µM (inactive). For the same compound, the IC50 [15] was > 32 µM (inactive).
In the case of Cc1ccc(/C=C2\SC(=S)N(CCCC(=O)Nc3ccc(O)cc3)C2=O)cc1, the IC50 [16] is reported as 0.744 µM (active), the IC50 [17] is reported as > 80 µM (inactive) and the IC50 [18] is reported as > 32 µM (inactive). The IC50 [19] was 0.253 µM (active).
With CC1(C)N=C(N)N=C(Nc2ccccc2)N1 the AC50 (Cytochrome P450 2D6) was 39.8 µM (inconclusive), the AC50 (Cytochrome P450 1A2) was “inactive” and the EC50 (Streptokinase A) was > 150 µM (not active). The EC50 [20] was 1.52 µM (active), the AC50 (Cytochrome P450 2C9 [21]) was “inconclusive” and the EC50 (Streptococcus) was > 150 µM (not active). For the same compound, the AC50 (Cytochrome P450 2C19) was “inactive”.
